In brackets after ≈: the same amount, converted by molar mass. Several values for one entry are separate records, joined by “and”; a condition that tells them apart may be missing. Identical values can stand only once.
What was measured:
[1] = system: DU-145; experiment: NCI human cancer cell line screen, antiproliferative activity, Prostate DU-145; assay type: cell-based; details: concentration corresponding to 50% growth inhibition, read-out: cytotoxicity GI50, Prostate DU-145
Protocol: (§1) The new synthesized brefeldin A prodrug candidates and analogs were examined for antiproliferative activity against human cancer cell lines in the National Cancer Institute screen, in which the activity of each compound was evaluated with approximately 55 different cancer cell lines of diverse tumor origins.

[2] = system: MDA-MB-435; experiment: NCI human cancer cell line screen, antiproliferative activity, Breast MDA-MB-435; assay type: cell-based; details: concentration corresponding to 50% growth inhibition, read-out: cytotoxicity GI50, Breast MDA-MB-435
Protocol: as §1

[3] = system: all human cancer cell lines successfully tested; experiment: NCI screen, mean graph midpoint over approximately 55 cancer cell lines; assay type: cell-based; details: average GI50 for all cell lines tested (approximately 55), test range 10^-4 to 10^-8 molar
Protocol: as §1

[4] = system: SN12C; experiment: NCI human cancer cell line screen, antiproliferative activity, Renal SN12C; assay type: cell-based; details: concentration corresponding to 50% growth inhibition, read-out: cytotoxicity GI50, Renal SN12C
Protocol: as §1

[5] = system: HOP-62; experiment: NCI human cancer cell line screen, antiproliferative activity, Lung HOP-62; assay type: cell-based; details: concentration corresponding to 50% growth inhibition, read-out: cytotoxicity GI50, Lung HOP-62
Protocol: as §1

[6] = system: HCT-116; experiment: NCI human cancer cell line screen, antiproliferative activity, Colon HCT-116; assay type: cell-based; details: concentration corresponding to 50% growth inhibition, read-out: cytotoxicity GI50, Colon HCT-116
Protocol: as §1

[7] = system: UACC-62; experiment: NCI human cancer cell line screen, antiproliferative activity, Melanoma UACC-62; assay type: cell-based; details: concentration corresponding to 50% growth inhibition, read-out: cytotoxicity GI50, Melanoma UACC-62
Protocol: as §1

[8] = system: OVCAR-3; experiment: NCI human cancer cell line screen, antiproliferative activity, Ovarian OVCAR-3; assay type: cell-based; details: concentration corresponding to 50% growth inhibition, read-out: cytotoxicity GI50, Ovarian OVCAR-3
Protocol: as §1

[9] = Solubility of saturated solutions in distilled water, gravimetric; details: distilled water at room temperature, saturated solution
[10] = system: SF-539; experiment: NCI human cancer cell line screen, antiproliferative activity, CNS SF-539; assay type: cell-based; details: concentration corresponding to 50% growth inhibition, read-out: cytotoxicity GI50, CNS SF-539
Protocol: as §1

[11] = buffer, pH 7.4

C[C@H]1CCC/C=C/[C@@H]2C[C@H](O)C[C@H]2[C@H](O)/C=C/C(=O)O1 [Compound 1, Brefeldin A]
GI50 [1]: 0.13 µM
GI50 [2]: 0.041 µM
MGM (mean graph midpoint for growth inhibition) [3]: 0.041 µM and 0.040 µM
MGM (mean graph midpoint for growth inhibition) ([3]; listed as brefeldin A): 0.040 µM
GI50 [4]: 0.09 µM
GI50 [5]: 0.07 µM
GI50 [6]: 0.029 µM
GI50 [7]: 0.022 µM
GI50 [8]: 0.032 µM
solubility [9]: 2.8 mg/mL (≈ 9.99 mM)
GI50 [10]: 0.04 µM

CC1CCCC=CC2CC(O)CC2C(O)[C@H](Sc2ccc(O)cc2)CC(=O)O1 (stereo partly drawn) [Compound 3, 2,3-Dihydro-(3R)-(4′-hydroxyphenylthio)brefeldin A]
GI50 [1]: 6.3 µM
MGM (mean graph midpoint for growth inhibition) [3]: 3.2 µM
GI50 [4]: 4.4 µM
GI50 [5]: 3.2 µM
GI50 [6]: 2.5 µM
GI50 [7]: 4.8 µM
GI50 [8]: 2.4 µM
GI50 [10]: 5.1 µM

CC1CCCC=CC2CC(O)CC2C(O)C(SCCN(C)C)CC(=O)O1 [Compound 4, 2,3-Dihydro-(3R)-(2′-N,N-dimethylaminoethylthiol)brefeldin A]
GI50 [1]: 2.4 µM
GI50 [2]: 0.5 µM
MGM (mean graph midpoint for growth inhibition) [3]: 0.68 µM
GI50 [4]: 1.4 µM
GI50 [6]: 0.75 µM
GI50 [7]: 0.43 µM
solubility [9]: 10 mg/mL (≈ 25.9 mM)
GI50 [10]: 0.39 µM

CC1CCCC=CC2CC(O)CC2C(O)C(SCCO)CC(=O)O1 [Compound 5, 2,3-Dihydro-(3R)-(2′-hydroxyethylthio)brefeldin A]
GI50 [1]: 30 µM
GI50 [2]: 34 µM
MGM (mean graph midpoint for growth inhibition) [3]: 20 µM
GI50 [4]: 33 µM
GI50 [5]: 34 µM
GI50 [6]: 19 µM
GI50 [7]: 40 µM
GI50 [8]: 27 µM
solubility [9]: 12 mg/mL (≈ 33.5 mM)
GI50 [10]: 23 µM

CC1CCCC=CC2CC(O)CC2C(O)[C@H](CC(=O)O)CC(=O)O1 (stereo partly drawn) [Compound 6, 2,3-Dihydro-(3R)-(carboxymethyl)brefeldin A]
GI50 [1]: 38 µM
GI50 [2]: 42 µM
MGM (mean graph midpoint for growth inhibition) [3]: 33 µM
GI50 [4]: 39 µM
GI50 [5]: 30 µM
GI50 [6]: 23 µM
GI50 [7]: 33 µM
GI50 [8]: 30 µM
solubility [9]: 40 mg/mL (≈ 118 mM)
GI50 [10]: 34 µM

COC(=O)CSC1CC(=O)OC(C)CCCC=CC2CC(O)CC2C1O [Compound 7, 2,3-Dihydro-(3R)-(methoxycarbonylmethylthiol)brefeldin A]
GI50 [1]: 30 µM
GI50 [2]: 30 µM
MGM (mean graph midpoint for growth inhibition) [3]: 17 µM
GI50 [4]: 32 µM
GI50 [5]: 28 µM
GI50 [6]: 19 µM
GI50 [8]: 27 µM
GI50 [10]: 24 µM

CC1CCCC=CC2CC(O)CC2C(O)[C@H](SCC(O)CO)CC(=O)O1 (stereo partly drawn) [Compound 8, 2,3-Dihydro (3R)-(2′,3′-dihydroxypropylthio) brefeldin A]
GI50 [1]: 18 µM
GI50 [2]: 36 µM
MGM (mean graph midpoint for growth inhibition) [3]: 23 µM
GI50 [4]: 34 µM
GI50 [5]: 33 µM
GI50 [6]: 36 µM
GI50 [7]: 16 µM
GI50 [8]: 22 µM
GI50 [10]: 32 µM

CC1CCCC=CC2CC(O)CC2C(O)C(SCCN)CC(=O)O1 [Compound 9, 2,3-Dihydro-(3R)-(2′)-aminoethylthio)brefeldin A]
MGM (mean graph midpoint for growth inhibition) [3]: 2.5 µM
GI50 [5]: 3.9 µM
GI50 [6]: 3.5 µM
GI50 [7]: 2.7 µM
GI50 [8]: 2.2 µM
GI50 [10]: 4.9 µM

COc1ccc(S[C@@H]2CC(=O)OC(C)CCCC=CC3CC(O)CC3C2O)cc1 (stereo partly drawn) [Compound 10, 2,3-Dihydro-(3R)-(4′-methoxyphenylthio)brefeldin A]
GI50 [1]: 36 µM
GI50 [2]: 19 µM
MGM (mean graph midpoint for growth inhibition) [3]: 31 µM
GI50 [4]: 30 µM
GI50 [5]: 24 µM
GI50 [6]: 33 µM
GI50 [7]: 29 µM
GI50 [8]: 22 µM
GI50 [10]: 26 µM

C[C@H]1CCC/C=C/[C@@H]2C[C@H](O)C[C@H]2[C@H](O)[C@@H](SC[C@H](N)C(=O)O)CC(=O)O1 [Compound 11, 2,3-Dihydro-(3R)-(S-L-cysteinyl)brefeldin A]
solubility [9]: 35 mg/mL (≈ 87.2 mM)

COC(=O)CC[S+]([O-])C1CC(=O)OC(C)CCCC=CC2CC(O)CC2C1O [Compound 13, 2,3-Dihydro-(3R)-(2′-methoxycarbonylethylsulfinyl)brefeldin A]
half-life for the conversion of the sulfoxide to brefeldin A [11]: 87.4 h

C[C@H]1CCC/C=C/[C@@H]2C[C@H](O)C[C@H]2[C@H](O)[C@H]([S+]([O-])c2ccc(O)cc2)CC(=O)O1 (stereo partly drawn) [Compound 14, 2,3-Dihydro-(3R)-(4′-hydroxyphenylsulfinyl)brefeldin A]
GI50 [1]: 0.118 µM
GI50 [2]: 0.042 µM
MGM (mean graph midpoint for growth inhibition) [3]: 0.037 µM
GI50 [4]: 0.05 µM
GI50 [5]: 0.088 µM
GI50 [6]: 0.026 µM
GI50 [7]: 0.03 µM
GI50 [8]: 0.025 µM
GI50 [10]: 0.017 µM

CC1CCCC=CC2CC(O)CC2C(O)[C@H]([S+]([O-])CCO)CC(=O)O1 (stereo partly drawn) [Compound 15, 2,3-Dihydro-(3R)-(2′-hydroxyethylsulfinyl)brefeldin A]
GI50 [1]: 0.26 µM
GI50 [2]: 0.09 µM
MGM (mean graph midpoint for growth inhibition) [3]: 0.11 µM
GI50 [4]: 0.65 µM
GI50 [5]: 0.29 µM
half-life for the conversion of the sulfoxide to brefeldin A [11]: 4.81 h
GI50 [6]: 0.21 µM
GI50 [7]: 0.064 µM
GI50 [8]: 0.19 µM
GI50 [10]: 0.058 µM

CC1CCCC=CC2CC(O)CC2C(O)[C@H]([S+]([O-])CCN)CC(=O)O1 (stereo partly drawn) [Compound 18, 2,3-Dihydro-(3R)-(2′-aminoethylsulfinyl)brefeldin A]
GI50 [1]: 0.17 µM
GI50 [2]: 0.055 µM
MGM (mean graph midpoint for growth inhibition) [3]: 0.055 µM
GI50 [4]: 0.12 µM
GI50 [5]: 0.15 µM
GI50 [6]: 0.086 µM
GI50 [7]: 0.021 µM
GI50 [8]: 0.082 µM
GI50 [10]: 0.02 µM

C[C@H]1CCC/C=C/[C@@H]2C[C@H](O)C[C@H]2[C@@H](O)[C@H]([S+]([O-])CCN(C)C)CC(=O)O1 (stereo partly drawn) [Compound 20, 2,3-Dihydro-(3R)-[21-N,N-(dimethylamino)ethylsulfinyl]brefeldin A]
GI50 [1]: 0.48 µM
GI50 [2]: 0.41 µM
MGM (mean graph midpoint for growth inhibition) [3]: 0.20 µM
GI50 [4]: 0.15 µM
GI50 [5]: 0.35 µM
GI50 [6]: 0.28 µM
GI50 [7]: 0.071 µM
GI50 [8]: 0.14 µM
GI50 [10]: 0.3 µM

CC1CCCC=CC2CC(O)CC2C(O)C([S+]([O-])C[C@H](N)C(=O)O)CC(=O)O1 (stereo partly drawn) [Compound 21, 2,3-Dihydro-(3R)-(S-L-cysteinyl)brefeldin A Sulfoxide]
GI50 [1]: 0.43 µM
GI50 [2]: 0.05 µM
MGM (mean graph midpoint for growth inhibition) [3]: 0.096 µM
GI50 [4]: 0.16 µM
GI50 [5]: 0.7 µM
GI50 [6]: 0.091 µM
GI50 [7]: 0.038 µM
GI50 [8]: 0.039 µM
GI50 [10]: 0.038 µM

C[C@H]1CCC/C=C/[C@@H]2C[C@H](OC(=O)CCC(=O)O)C[C@H]2[C@H](OC(=O)CCC(=O)O)/C=C/C(=O)O1 [Compound 24, Brefeldin A Disuccinate]
GI50 [1]: > 100 µM
GI50 [2]: > 100 µM
MGM (mean graph midpoint for growth inhibition) [3]: 89 µM
GI50 [4]: > 100 µM
GI50 [5]: > 100 µM
GI50 [6]: > 100 µM
GI50 [7]: > 100 µM
GI50 [8]: > 100 µM
GI50 [10]: > 100 µM

CC1CCCC=CC2CC(OC(=O)CCCC(=O)O)CC2C(OC(=O)CCCC(=O)O)C=CC(=O)O1 (stereo not shown) [Compound 25, Brefeldin A Diglutarate]
GI50 [1]: > 100 µM
GI50 [2]: > 100 µM
MGM (mean graph midpoint for growth inhibition) [3]: 98 µM
GI50 [4]: > 100 µM
GI50 [5]: > 100 µM
GI50 [6]: > 100 µM
GI50 [7]: > 100 µM
GI50 [8]: > 100 µM
GI50 [10]: > 100 µM

CC1CCCC=CC2CC(O)CC2C(O)C(O)C(O)C(=O)O1 (stereo not shown) [Compound 26, 2,3-Dihydro-2,3-dihydroxybrefeldin A]
GI50 [1]: 6.7 µM
GI50 [2]: 3.8 µM
MGM (mean graph midpoint for growth inhibition) [3]: 3.0 µM and 2.3 µM
GI50 [4]: 2.7 µM
GI50 [5]: 5 µM
GI50 [7]: 1.6 µM
GI50 [8]: 2.4 µM
GI50 [10]: 0.68 µM

COC(=O)CS(=O)(=O)[C@@H]1CC(=O)OC(C)CCCC=CC2CC(O)CC2C1O (stereo partly drawn) [Compound 27, 2,3-Dihydro(3R)-(methoxycarbonylmethylsulfonyl)brefeldin A]
GI50 [1]: 6 µM
GI50 [2]: 5.5 µM
MGM (mean graph midpoint for growth inhibition) [3]: 3.5 µM
GI50 [5]: 5.1 µM
GI50 [6]: 3.7 µM
GI50 [7]: 5 µM
GI50 [8]: 3.2 µM

Brefeldin A 8 0-Glutarate [Compound 23]
GI50 [1]: 30 µM
GI50 [2]: 11 µM
MGM (mean graph midpoint for growth inhibition) [3]: 13 µM
GI50 [4]: 32 µM
GI50 [5]: 33 µM
GI50 [6]: 21 µM
GI50 [8]: 20 µM
GI50 [10]: 22 µM

Brefeldin A 8 0-Succinate [Compound 22]
MGM (mean graph midpoint for growth inhibition) [3]: 2.5 µM

— US6362218B1, “Brefeldin A derivatives” (Purdue Research Foundation, priority 1997, dated 2002)
